Patent US11814376B2, “Hepatitis b core protein modulators” (Assembly Biosciences, Inc., priority 2015, dated 2023)

Assays:
[1] = test system: HBV viral load in AD38 cells; assay: Viral load production in AD38 cells, quantitative PCR of the core sequence in supernatant; format: cell-based; conditions: Hepatitis B virus, 144 h, 10 μM compound, 6 days at 37° C., supernatant qPCR, relative to DMSO control; read-out: AD38 Viral Load (%) (VL with cmpd/VL in DMSO control) at 10 μM
AD38 cells = assay: Viability of AD38 cells (Promega CellTiter-Glo); format: cell-based; conditions: 10 μM compound, 6 days, CellTiter-Glo luminescence normalized to DMSO control (100%)
In short: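 AD38 cells were seeded at 50,000/well on collagen-coated plates and treated with compound added as a 10× solution in 10% DMSO for 6 days at 37° C. Viability was measured by CellTiter-Glo luminescence in tetracycline-free medium with 2% FBS and 1% DMSO, and expressed as percent of DMSO control.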

Compound | activity at 10 µM [1] [%] | AD38 Viability Normalized Result (cmpd/DMSO %) at 10 μM (AD38 cells) [%]
O=C(NCc1cnc(-c2ccc(C#CCCO)cc2)s1)c1ccc2c(c1)NC(=O)c1ccccc1S2(=O)=O [11002-A, N-((2-(4-(4-hydroxybut-1-yn-1-yl)phenyl)thiazol-5-yl)methyl)-11-oxo-10, 11-dihydrodibenzo [b, f] [1, 4] thiazepine-8-carboxamide 5,5-dioxide] | 1 | 106
CCN(CC)CCCCc1ccc(-c2ncc(CNC(=O)c3ccc4c(c3)NC(=O)c3ccccc3S4(=O)=O)s2)cc1 [compound 11053] | 3.6 | 104
Cc1c(C(=O)NCc2cnc(-c3ccc(F)cn3)s2)ccc2c1NC(=O)c1ccccc1S2(=O)=O [compound 11150] | 0.4 | 100
O=C(NCc1cnc(-c2ccc(O)cc2)s1)c1ccc2c(c1)NC(=O)c1cc(Cl)ccc1S2 [compound 1760] | 6.4 | 94
CCCN1c2ccc(C(=O)NCc3cnc(-c4ccc(C#N)cc4)s3)cc2NC(=O)c2ccccc21 [compound 1917] | 1.1 | 108
CN(CCCOc1ccc(-c2ncc(CNC(=O)c3ccc4c(c3)NC(=O)c3ccccc3S4(=O)=O)s2)cc1)CC(F)(F)F [compound 1994] | 0.9 | 92
